Test results as given in publication PMC9723620 (2022).
Each block holds one molecule with its values, some of them ahead of it.

Tests used:
[1] = tested on: A-site RNA (RNA, rRNA) CGGCGUCACACCUCGGGGUGAAGUCGCCG; assay: fluorescent intercalator displacement (FID); conditions: 100 mM KCl, 4 mM MgCl2, 20 mM Tris-HCl pH 7.0, TO-PRO displaced, RNA 0.5 μM
[2] = tested on: NEAT1_2 TH (5' biotin-TEG, immobilized) (RNA, triplex) AGGUGUUUCUUUUACUGAGUGCAGCCC/UGGCCGCACUCAGGUUUUGCUUUUCACCUUCCCAUCUGUGAAAGAGUGAGCAGGAAAAAGCAAAA; assay: grating-coupled interferometry (waveRAPID); conditions: 150 mM NaCl, 4 mM MgCl2; 10 mM HEPES pH 7.4, 0.005% Tween-20, 1% DMSO, 25°C; tested at 10 μM
[3] = tested on: NEAT1_2 TH (RNA, triplex) AGGUGUUUCUUUUACUGAGUGCAGCCC/UGGCCGCACUCAGGUUUUGCUUUUCACCUUCCCAUCUGUGAAAGAGUGAGCAGGAAAAAGCAAAA; assay: fluorescent intercalator displacement (FID) screen; conditions: 100 mM KCl, 4 mM MgCl2, 20 mM Tris-HCl pH 7.0, 2% DMSO, TO-PRO displaced, RNA 0.25 μM, hit at 10 μM
[4] = tested on: NEAT1_2 TH (RNA, triplex) AGGUGUUUCUUUUACUGAGUGCAGCCC/UGGCCGCACUCAGGUUUUGCUUUUCACCUUCCCAUCUGUGAAAGAGUGAGCAGGAAAAAGCAAAA; assay: fluorescent intercalator displacement (FID); conditions: 100 mM KCl, 4 mM MgCl2, 20 mM Tris-HCl pH 7.0, TO-PRO displaced, RNA 0.5 μM
[5] = tested on: NEAT1_2 TH (RNA, triplex) AGGUGUUUCUUUUACUGAGUGCAGCCC/UGGCCGCACUCAGGUUUUGCUUUUCACCUUCCCAUCUGUGAAAGAGUGAGCAGGAAAAAGCAAAA; assay: fluorescence increase on binding; conditions: 100 mM KCl, 4 mM MgCl2; 20 mM Tris-HCl pH 7.0; RNA 0.5 μM, equimolar dye; 220.7-fold fluorescence increase
[6] = tested on: A-site RNA (RNA, rRNA) CGGCGUCACACCUCGGGGUGAAGUCGCCG; assay: fluorescence increase on binding; conditions: 100 mM KCl, 4 mM MgCl2; 20 mM Tris-HCl pH 7.0; RNA 0.5 μM, equimolar dye; 116.3-fold fluorescence increase
[7] = tested on: fragment 1 (f1), biotinylated (RNA, single strand) AGGUGUUUCUUUUACUGAGUGCAGCCC; assay: grating-coupled interferometry (waveRAPID); conditions: 150 mM NaCl, 4 mM MgCl2; 10 mM HEPES pH 7.4, 0.005% Tween-20, 1% DMSO, 25°C; tested at 10 μM
[8] = tested on: fragment 2 (f2), biotinylated (RNA, other) UGGCCGCACUCAGGUUUUGCUUUUCACCUUCCCAUCUGUGAAAGAGUGAGCAGGAAAAAGCAAAA; assay: grating-coupled interferometry (waveRAPID); conditions: 150 mM NaCl, 4 mM MgCl2; 10 mM HEPES pH 7.4, 0.005% Tween-20, 1% DMSO, 25°C; tested at 10 μM

binding ([1]; no effect at 50 μM): no
SMILES: CC(=O)NC[C@H]1CN(c2ccc(N3CCOCC3)c(F)c2)C(=O)O1

binding [2]: no
binding ([3]; not confirmed by GCI): yes
SMILES: CC(=O)c1c(O)c(C)c(O)c(Cc2c(O)c3c(c(C(=O)/C=C/c4ccccc4)c2O)OC(C)(C)C=C3)c1O

binding ([4]; at higher concentration): weak
binding ([1]; at higher concentration): weak
SMILES: CC1(C)CC(Oc2ccc(-c3ccc(-c4cn[nH]c4)cc3O)nn2)CC(C)(C)N1

binding ([4]; fluorescence to 0.72, higher concentration only): weak
binding ([1]; both concentrations): yes
SMILES: CN[C@@H]1[C@@H](O)[C@@H](O[C@@H]2[C@@H](O)[C@H](O[C@H]3O[C@H]([C@@H](C)O)[C@@H](O)[C@H](O)[C@H]3N)[C@@H](N)C[C@H]2N)OC[C@]1(C)O

binding ([4]; two concentrations): no
binding ([1]; two concentrations): no
SMILES: CNc1ncc(CN2CCCC(c3nc(-c4cccs4)cc(=O)[nH]3)C2)cn1 (centres unmarked)

binding [3]: yes
SMILES: COc1ccc(Br)cc1S(=O)(=O)NC(=O)/C=C/c1ccccc1Cc1ccc2ccccc2c1

binding [5]: yes
binding [6]: yes
SMILES: C[n+]1c(C=C2C=CN(CCC[N+](C)(C)C)c3ccccc32)sc2ccccc21

binding [7]: no
binding [8]: no
binding [3]: yes
SMILES: Cc1cc(O)c2c(c1)C(=O)c1cc(O)cc(O)c1C2=O

binding [3]: yes
SMILES: NCCOc1cc(C(=O)Nc2cc(OCCN)c3ccccc3n2)nc(C(=O)Nc2cc(OCCN)c3ccccc3n2)c1

binding ([4]; fluorescence 0.61 at 50, 0.34 at 500 μM): yes
binding ([1]; fluorescence to 0.08 at 50 and 500 μM): yes
SMILES: NC[C@@H]1O[C@H](O[C@H]2[C@@H](O)[C@H](O[C@@H]3[C@@H](O)[C@H](N)C[C@H](N)[C@H]3O[C@H]3O[C@H](CO)[C@@H](O)[C@H](O)[C@H]3N)O[C@@H]2CO)[C@H](N)[C@@H](O)[C@@H]1O

binding [2]: no
binding ([4]; no effect at 50 μM): no
binding ([1]; no effect at 50 μM): no
SMILES: O=C(N[C@H](CO)[C@H](O)c1ccc([N+](=O)[O-])cc1)C(Cl)Cl

binding [3]: yes
SMILES: O=C(O)C1=CC(=C(c2ccc(O)c(C(=O)O)c2)c2ccc(O)c(C(=O)O)c2)C=CC1=O

binding [3]: yes
SMILES: O=C1Nc2ccc(I)cc2/C1=C/c1cc(Br)c(O)c(Br)c1

binding [3]: yes
SMILES: O=C1c2c(O)ccc(O)c2C(=O)c2c(NCCNCCO)ccc(NCCNCCO)c21

binding [3]: yes
SMILES: O=c1c(O)c(-c2cc(O)c(O)c(O)c2)oc2cc(O)cc(O)c12

binding [3]: yes
SMILES: O=c1c(O)c(-c2ccc(O)c(O)c2)oc2cc(O)cc(O)c12
